The first experiment has as its target T1, CRTH2 (Homo sapiens, UniProt Q9Y5Y4).
T1 construct: expressed in transfected cells; host or cells: CHO cells
T1 sequence (Q9Y5Y4 1-395): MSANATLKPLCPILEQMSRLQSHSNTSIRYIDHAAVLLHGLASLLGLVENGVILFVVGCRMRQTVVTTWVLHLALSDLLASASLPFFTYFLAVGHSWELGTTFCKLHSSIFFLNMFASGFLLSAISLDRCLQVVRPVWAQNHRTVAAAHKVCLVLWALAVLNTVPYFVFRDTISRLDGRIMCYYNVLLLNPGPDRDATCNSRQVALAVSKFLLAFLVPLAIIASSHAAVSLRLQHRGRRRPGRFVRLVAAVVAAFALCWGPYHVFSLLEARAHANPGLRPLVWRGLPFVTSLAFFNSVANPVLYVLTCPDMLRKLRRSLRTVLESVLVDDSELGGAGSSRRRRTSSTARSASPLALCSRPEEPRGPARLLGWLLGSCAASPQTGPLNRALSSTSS
Kind of experiment: [35S]GTPγS binding assay on CHO-CRTH2 cell membranes. The class given is biochemical. Conditions: without addition of PGD2; 100% of Emax being the activity measured by the addition of 1 μM of PGD2. As to the method:
(§1) Adherent CHO cells expressing hCRTH2 (Euroscreen, Belgium) were cultured in 225 cm^2 cell culture flasks (Corning, USA) in 30 ml of medium. After two rinses of phosphate buffered saline (PBS), cells were harvested in 10 ml of PBS containing 1 mM EDTA, centrifuged at 500×g for 5 min at 4° C. and frozen at −80° C. The pellet was re-suspended in 50 mM Tris-HCl, pH 7.4, 2 mM EDTA, 250 mM Sucrose, containing protease inhibitor cocktail tablets, (Complete EDTA-free, Roche, Germany) and incubated 30 min at 4° C. Cells were disrupted by nitrogen cavitation (Parr Instruments, USA) at 4° C. (800 p.s.i. for 30 min), and centrifuged at 500×g for 10 min at 4° C. Pellet containing nuclei and cellular debris was discarded and supernatant was centrifuged 60 min at 4° C. at 45000×g. Membrane pellet was re-suspended in storage buffer (10 mM HEPES/KOH pH 7.4, 1 mM EDTA, 250 mM sucrose, protease inhibitor cocktail tablets) using Dounce homogenization and frozen in liquid nitrogen, and stored at 80° C.
The [^35S]GTPγS assay measures the increase in guanine nucleotide exchange at G-proteins in cell membranes, resulting from agonist (PGD2) binding to CRTH2. […] Briefly, Compounds of Formula (I) are incubated in 96-well scintillating white polystyrene plates (Perkin Elmer, USA) in a final volume of 200 μl containing 20 mM HEPES/KOH pH 7.4, 3 mM MgCl2, 10 μg/ml Saponin, 5 μM GDP, 75 mM NaCl and 2% of dimethylsulphoxide (DMSO). […] After 60 min incubation at 30° C., reaction is stopped by centrifugation at 700×g, at 4° C. for 10 minutes and supernatant is removed. […] For IC50 determination, increasing concentrations of compounds are incubated in presence of a fixed concentration of PGD2 (EC80). For EC50 measurements, compounds are incubated without addition of PGD2. Basal [^35S]GTPγS activity is determined without addition of any ligands or compounds. 100% [^35S]GTPγS activity is measured by the addition of 1 μM of PGD2.
A general note: GTPγS is a poorly hydrolysed GTP analogue; its binding reports G protein activation.
As usually defined, the Emax is the size of the effect at its maximum, as opposed to the concentration needed. As to `CCC(=O)N(Cc1cccc(O)c1)c1cc(F)cc(-c2nnn[nH]2)c1` [Example 84, N-[3-fluoro-5-(1H-tetrazol-5-yl)phenyl]-N-(3-hydroxybenzyl)propanamide], the Emax was -17.1%.
Still for that read-out and setting: then `CCC(=O)N(Cc1cccc(OC)c1)c1cc(F)cc(-c2nnn[nH]2)c1` [Example 39, N-[3-fluoro-5-(1H-tetrazol-5-yl)phenyl]-N-(3-methoxybenzyl)propanamide], with -11.2%; and `CCC(=O)N(Cc1ccc(-c2c(C)cccc2C)cc1)c1cc(F)cc(-c2nnn[nH]2)c1` [Example 100], with -16.7%.

The target of another experiment is T2, CRTH2 (DP2) (Homo sapiens, UniProt Q9Y5Y4).
T2 construct: host or cells: CHO cells
T2 sequence (Q9Y5Y4 1-395): T1 sequence (Q9Y5Y4 1-395)
Kind of experiment: Radioligand binding Scintillation Proximity Assay ([3H]PGD2, hCRTH2-CHO cell membranes). Particulars: 1.5 nM [3H]PGD2, hCRTH2-CHO cell membranes, SPA. As to the method: as §1
Non-specific binding was determined in the presence of 10 μM PGD2 (Cayman, USA). Competing Compounds of Formula (I) were diluted in dimethylsulphoxide so that the total volume of dimethylsulfoxide was kept constant at 1% dimethylsulphoxide (Me2SO). Serial dilutions of […] were prepared and 10 μl each of the compounds of Formula (I) stock solutions were added to the binding assay reagents and incubated for 90 min with agitation at room temperature.
In general, IC50 refers to the concentration that gives 50% inhibition. `CCC(=O)N(Cc1cccc(OC)c1)c1cc(F)cc(-c2nnn[nH]2)c1` [Example 39, N-[3-fluoro-5-(1H-tetrazol-5-yl)phenyl]-N-(3-methoxybenzyl)propanamide] came in with an IC50 of 9.6 nM.
As to `CCC(=O)N(Cc1ccc(-c2c(C)cccc2C)cc1)c1cc(F)cc(-c2nnn[nH]2)c1` [Example 100], the IC50 came out at 8.3 nM.
With `CCC(=O)N(Cc1ccc(-c2ccncc2)cc1)c1cc(F)cc(-c2nnn[nH]2)c1` [Example 89, N-[3-fluoro-5-(1H-tetrazol-5-yl)phenyl]-N-(4-pyridin-4-ylbenzyl)propanamide], the IC50 turned out to be 57 nM.
The same measure, in the same setting: the same measure for `CCC(=O)N(Cc1ccc(-c2cccc(S(=O)(=O)N(C)C)c2)cc1)c1cc(F)cc(-c2nnn[nH]2)c1` [Example 93, N-({3′-[(dimethylamino)sulfonyl]biphenyl-4-yl}methyl)-N-[3-fluoro-5-(1H-tetrazol-5-yl)phenyl]propanamide]: 125 nM.
The molecule `CCC(=O)N(Cc1c(-c2ccccc2)noc1C)c1cccc(-c2nnn[nH]2)c1` [Example 23, N-[(5-methyl-3-phenylisoxazol-4-yl)methyl]-N-[3-(1H-tetrazol-5-yl)phenyl]propanamide] showed an IC50 of 2960 nM.
The same measure, in the same setting: then `CCCC(=O)N(Cc1ccc2c(c1)OCCO2)c1cc(-c2nnn[nH]2)ccc1F` [Example 8, N-(2,3-dihydro-1,4-benzodioxin-6-ylmethyl)-N-[2-fluoro-5-(1H-tetrazol-5-yl)phenyl]butanamide], with 6.3 nM; and `CCC(=O)N(Cc1ccc(-c2ccccc2OC)cc1)c1cc(F)cc(-c2nnn[nH]2)c1` [Example 99, N-[3-fluoro-5-(1H-tetrazol-5-yl)phenyl]-N-[(2′-methoxybiphenyl-4-yl)methyl]propanamide], with 13 nM; and `CCNS(=O)(=O)c1cccc(-c2ccc(CN(C(=O)CC)c3cc(F)cc(-c4nnn[nH]4)c3)cc2)c1` [Example 86, N-({3′-[(ethylamino)sulfonyl]biphenyl-4-yl}methyl)-N-[3-fluoro-5-(1H-tetrazol-5-yl)phenyl]propanamide], with 170 nM.
The molecule `CCC(=O)N(Cc1ccc(-c2ccccc2)cc1)c1cccc(-c2nnn[nH]2)c1` [Example 69, N-(biphenyl-4-ylmethyl)-N-[3-(1H-tetrazol-5-yl)phenyl]propanamide] gave an IC50 of 506 nM.
`CCC(=O)N(Cc1ccc(-c2ccccc2Cl)cc1)c1cc(F)cc(-c2nnn[nH]2)c1` [Example 98, N-[(2′-chlorobiphenyl-4-yl)methyl]-N-[3-fluoro-5-(1H-tetrazol-5-yl)phenyl]propanamide] had an IC50 of 31 nM.
The same measure, in the same setting: the same measure for `CCC(=O)N(Cc1ccc(F)cc1)c1cccc(-c2nnn[nH]2)c1` [Example 31, N-(4-fluorobenzyl)-N-[3-(1H-tetrazol-5-yl)phenyl]propanamide]: 1540 nM; for `CCC(=O)N(Cc1ccc2c(c1)OC(F)(F)O2)c1cc(Cl)cc(-c2nnn[nH]2)c1` [Example 103, N-[3-chloro-5-(1H-tetrazol-5-yl)phenyl]-N-[(2,2-difluoro-1,3-benzodioxol-5-yl)methyl]propanamide]: 13 nM; for `CCCCC(=O)N(Cc1ccc(OC(F)(F)F)cc1)c1cc(F)cc(-c2nnn[nH]2)c1` [Example 35, N-[3-fluoro-5-(1H-tetrazol-5-yl)phenyl]-N-[4-(trifluoromethoxy)benzyl]pentanamide]: 8.9 nM.
On the same count and under the same terms, the same measure for `CCCC#Cc1cccc(CN(C(=O)CC)c2cccc(-c3nnn[nH]3)c2)c1` [Example 49, N-(3-pent-1-yn-1-ylbenzyl)-N-[3-(1H-tetrazol-5-yl)phenyl]propanamide]: 618 nM; for `CCC(=O)N(Cc1cccc(OC)c1)c1cccc(-c2nnn[nH]2)c1` [Example 25, N-(3-methoxybenzyl)-N-[3-(1H-tetrazol-5-yl)phenyl]propanamide]: 444 nM.
Still for that read-out and setting: the same measure for `CC(C)C(=O)N(Cc1ccc(S(C)(=O)=O)cc1)c1cc(F)cc(-c2nnn[nH]2)c1` [Example 117, N-[3-fluoro-5-(1H-tetrazol-5-yl)phenyl]-2-methyl-N-[4-(methylsulfonyl)benzyl]propanamide]: 19 nM; for `CCC(=O)N(Cc1nc2ccccc2s1)c1cccc(-c2nnn[nH]2)c1` [Example 43, N-(1,3-benzothiazol-2-ylmethyl)-N-[3-(1H-tetrazol-5-yl)phenyl]propanamide]: 663 nM.
Molecule `CCCCC(=O)N(Cc1ccc2ccccc2c1)c1cccc(-c2nnn[nH]2)c1` [Example 3, N-(2-naphthylmethyl)-N-[3-(1H-tetrazol-5-yl)phenyl]pentanamide] came in with an IC50 of 49 nM.
The same measure, in the same setting: the same measure for `CCC(=O)N(Cc1cccc(-c2cnoc2)c1)c1cccc(-c2nnn[nH]2)c1` [Example 62, N-(3-isoxazol-4-ylbenzyl)-N-[3-(1H-tetrazol-5-yl)phenyl]propanamide]: 769 nM; for `CCC(=O)N(Cc1ccc(-c2cccc(S(C)(=O)=O)c2)cc1)c1cc(F)cc(-c2nnn[nH]2)c1` [Example 87, N-[3-fluoro-5-(1H-tetrazol-5-yl)phenyl]-N-{[3′-(methylsulfonyl)biphenyl-4-yl]methyl}propanamide]: 185 nM; for `CCC(=O)N(Cc1ccc(OC)cc1)c1cccc(-c2nnn[nH]2)c1` [Example 26, N-(4-methoxybenzyl)-N-[3-(1H-tetrazol-5-yl)phenyl]propanamide]: 268 nM.
Molecule `CCC(=O)N(Cc1ccccc1F)c1cccc(-c2nnn[nH]2)c1` [Example 33, N-(2-fluorobenzyl)-N-[3-(1H-tetrazol-5-yl)phenyl]propanamide] had an IC50 of 1160 nM.
Still for that read-out and setting: then `CCC(=O)N(Cc1ccc(-c2ccccc2C)cc1)c1cc(F)cc(-c2nnn[nH]2)c1` [Example 102, N-[3-fluoro-5-(1H-tetrazol-5-yl)phenyl]-N-[(2′-methylbiphenyl-4-yl)methyl]propanamide], with 8.9 nM; and `CCC(=O)N(Cc1ccc(-c2c(C)nn(C)c2C)cc1)c1cc(F)cc(-c2nnn[nH]2)c1` [Example 94, N-[3-fluoro-5-(1H-tetrazol-5-yl)phenyl]-N-[4-(1,3,5-trimethyl-1H-pyrazol-4-yl)benzyl]propanamide], with 21 nM; and `CCC(=O)N(Cc1ccc(OC(F)(F)F)c(Cl)c1)c1cccc(-c2nnn[nH]2)c1` [Example 45, N-[3-chloro-4-(trifluoromethoxy)benzyl]-N-[3-(1H-tetrazol-5-yl)phenyl]propanamide], with 83 nM.
In turn, `CCC(=O)N(Cc1cccc(-c2c(C)noc2C)c1)c1cc(F)cc(-c2nnn[nH]2)c1` [Example 85, N-[3-(3,5-dimethylisoxazol-4-yl)benzyl]-N-[3-fluoro-5-(1H-tetrazol-5-yl)phenyl]propanamide] showed an IC50 of 19 nM.
In turn, `CCC(=O)N(Cc1ccc(SC(F)(F)F)cc1)c1cc(F)cc(-c2nnn[nH]2)c1` [Example 82, N-[3-fluoro-5-(1H-tetrazol-5-yl)phenyl]-N-{4-[(trifluoromethyl)thio]benzyl}propanamide] showed an IC50 of 2.6 nM.
On the same count and under the same terms, the same measure for `CCC(=O)N(Cc1ccc2c(c1)OCO2)c1cccc(-c2nnn[nH]2)c1` [Example 34, N-(1,3-benzodioxol-5-ylmethyl)-N-[3-(1H-tetrazol-5-yl)phenyl]propanamide]: 147 nM.

The values above are taken from patent publication US20120115869A1, “TETRAZOLE DERIVATIVES” (MERCK SERONO S.A., priority 2009, published 2012).
